Read-outs that look alike come from different tables or passages of the source. Numbered stars: 1 amine (or outer) side, 2 acyl side, 3 side chain; on linkers, the order of the positions; unused ones are H or OH. Bridge positions count the residues as written; N and C are the ends. Peptide text beside a SMILES is read from it. * marks the point of attachment. 5FAM = O=C1OC2(c3ccc(O)cc3Oc3cc(O)ccc32)c2ccc(C(=O)*)cc21; X1 = O=C(O)c1cc(C(=O)*)ccc1-c1c2ccc(=O)cc-2oc2cc(O)ccc12; CH2COCH2 = O=C(C[*:1])C[*:2]
Key:
[1] = biological target: T1, calprotectin tetramer (recombinant B-RCAL, His6-linker-S100A9-linker-S100A8) (Homo sapiens, UniProt P05109); experiment: Fluorescence polarization (FP) binding to recombinant calprotectin B-RCAL tetramer in presence of CaCl2; conditions: for effect of mutation to alanine on binding: alanine scan of linear peptide 3, found via FP and SPR
T1 construct: we used the recombinant protein without removing the His-tag or cleaving the 8-amino acid linker between the two proteins; co-authors' company
T1 sequence (P05109 with tags, fused parts or gaps): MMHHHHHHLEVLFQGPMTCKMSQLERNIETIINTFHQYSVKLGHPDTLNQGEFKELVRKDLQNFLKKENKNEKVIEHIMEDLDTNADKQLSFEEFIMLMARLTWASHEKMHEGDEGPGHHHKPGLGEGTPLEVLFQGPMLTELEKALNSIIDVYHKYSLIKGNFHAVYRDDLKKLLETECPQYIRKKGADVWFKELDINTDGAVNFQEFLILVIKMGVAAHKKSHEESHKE
Description: Calprotectin was serially diluted in 20 mM HEPES, 100 mM NaCl, 2 mM CaCl2, pH 7.5, and 1 mM DTT with 0.01% (v/v) Tween-20. Volumes of 16 μL of protein were added to 4 μL of fluorescent peptide (20 nM final concentration) in black 384-well microtiter plates. Fluorescence anisotropy was measured on a microwell plate reader (Infinite M200Pro, Tecan) with filters for excitation at 485 nm and emission at 535 nm. The dissociation constant (Kd) was calculated using a following Eq. (1) using Prism 5 software (GraphPad):1 A=Af+Ab−Af×LT+KD+PT−LT+KD+PT^2−4LTPT/2LT where A is anisotropy, Af and Ab are the anisotropy values for free and bound ligands, respectively. [L]T is the concentration of the total fluorescent ligand and [P]T the concentration of the protein.

[2] = biological target: T2, calprotectin tetramer (recombinant B-RCAL) (Homo sapiens, UniProt P05109); experiment: SPR binding level at a single peptide concentration (500 nM); set-up: we used the recombinant protein without removing the His-tag or cleaving the 8-amino acid linker between the two proteins; co-authors' company; conditions: peptides injected at 500 nM, single measurement
T2 sequence (P05109 with tags, fused parts or gaps): T1 sequence (P05109 with tags, fused parts or gaps)
Excerpt: Typical immobilization levels were 3000 resonance units (RUs).

[3] = Methionine oxidation of peptide upon storage in solution; assay type: physicochemical
[4] = biological target: T3, native calprotectin (tetramer, + CaCl2) (Homo sapiens, UniProt P05109+P06702); experiment: FP binding to native calprotectin derived from granulocytes
T3 construct: Native calprotectin is derived from granulocytes; tissue gift from Thomas Vogl, Institute of Immunology, University of Muenster; host or cells: granulocytes
T3 sequence (P05109 1-93): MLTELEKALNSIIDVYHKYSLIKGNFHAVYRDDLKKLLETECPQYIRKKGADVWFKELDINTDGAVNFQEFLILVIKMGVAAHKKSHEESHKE
T3 sequence (P06702 2-114 limits assumed): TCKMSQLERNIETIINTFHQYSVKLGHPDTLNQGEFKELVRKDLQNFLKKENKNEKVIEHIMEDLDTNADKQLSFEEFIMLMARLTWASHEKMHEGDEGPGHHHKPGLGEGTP
Description: Fluorescence anisotropy was measured on a microwell plate reader (Infinite M200Pro, Tecan) with filters for excitation at 485 nm and emission at 535 nm. The dissociation constant (Kd) was calculated using a following Eq. […] [L]T is the concentration of the total fluorescent ligand and [P]T the concentration of the protein. Native calprotectin is derived from granulocytes (kind gift from Thomas Vogl, Institute of Immunology, University of Muenster) and was purified as described in ref. [34]. The size and concentration was analyzed and compared to B-RCAL by standard SDS-PAGE.

[5] = biological target: T2, calprotectin tetramer (recombinant B-RCAL); experiment: biochemical
Description: SPR measurements were performed using a Biacore^TM 8 K instrument (GE Healthcare) using the Biacore^TM 8 K Control software. Recombinant calprotectin (B-RCAL) was diluted with 10 mM acetate buffer (pH 5.0) to reach a concentration of 5 μg/mL and immobilized on a CM5 series S chip using the standard amine coupling method in running buffer (10 mM HEPES pH 7.4, 150 mM NaCl, 2 mM CaCl2, and 0.005% v/v Tween-20) at 25 °C and the following procedure. At a flow of 10 μL/min, the following solutions were injected: 420 s 0.4 M EDC, 0.1 M NHS; 100 to 200 s protein; 500 s 1 M ethanolamine-HCl pH 8.5. Typical immobilization levels were 3000 resonance units (RUs). A reference cell was treated in the same way but without the injection of protein. A single concentration for each peptide (500 nM) was injected in a running buffer containing 0.5% (v/v) DMSO to measure the binding level. For the measurement of binding kinetics and dissociation constants, five serial dilutions (threefold) of peptides were prepared in running buffer containing 0.5% (v/v) DMSO and analyzed in single cycle kinetics mode with the contact and dissociation times of 90 s and 120 s, respectively. Data were analyzed using Biacore^TM 8 K Evaluation software.

[6] = FP, alanine scan of linear peptide 3, 20 nM peptide, 2 mM CaCl2, one measurement, NB = non-binding

Row | SMILES | effect of mutation to alanine on binding [1] | Response at binding [2] | further results
1 | CSCC[C@H](NC(=O)[C@@H]1CCCN1C(=O)[C@H](Cc1ccccc1)NC(=O)[C@H](C)NC(=O)[C@@H](NC(=O)[C@H](CO)NC(=O)[C@H](CCC(=O)O)NC(=O)[C@@H]1CCCN1C(=O)[C@H](CO)NC(=O)[C@H](CCCNC(=N)N)NC(=O)c1ccc2c(c1)C(=O)OC21c2ccc(O)cc2Oc2cc(O)ccc21)C(C)C)C(=O)N[C@@H](Cc1ccccc1)C(=O)N[C@@H](CCC(N)=O)C(=O)N[C@@H](CO)C(=O)N[C@@H](C)C(=O)N[C@@H](Cc1c[nH]c2ccccc12)C(=O)N[C@@H](Cc1ccc(O)cc1)C(=O)N[C@@H](CO)C(=O)NCC(N)=O [Peptide H14A] (5FAM-RSPESVAFPMFQSAWYSG-NH2) | complete loss in binding | 10 RU | –
2 | CSCC[C@H](NC(=O)[C@@H]1CCCN1C(=O)[C@H](Cc1ccccc1)NC(=O)[C@H](C)NC(=O)[C@@H](NC(=O)[C@@H]1CSCC(=O)CSC[C@H](NC(=O)[C@H](CCCNC(=N)N)NC(=O)c2ccc(-c3c4ccc(=O)cc-4oc4cc(O)ccc34)c(C(=O)O)c2)C(=O)N2CCC[C@H]2C(=O)N[C@@H](CCC(=O)O)C(=O)N1)C(C)C)C(=O)N[C@@H](Cc1ccccc1)C(=O)N[C@@H](CCC(N)=O)C(=O)N[C@H]1CSCC(=O)CSC[C@@H](C(=O)NCC(N)=O)NC(=O)[C@H](Cc2ccc(O)cc2)NC(=O)[C@H](Cc2c[nH]c3ccccc23)NC(=O)[C@H](Cc2c[nH]cn2)NC1=O [Peptide 3] (X1-RCPECVAFPMFQCHWYCG-NH2; linker 2-5, 13-17 via CH2COCH2) | – | – | Kd ([1]; FP, 20 nM peptide, 2 mM CaCl2, Rep 1): 20 nM; FP increase upon binding to calprotectin ([1]; FP, 2 mM CaCl2): around 50%; oxidation upon storage in solution [3]: a small quantity was oxidized
3 | CSCC[C@H](NC(=O)[C@@H]1CCCN1C(=O)[C@H](Cc1ccccc1)NC(=O)[C@H](C)NC(=O)[C@@H](NC(=O)[C@H](CO)NC(=O)[C@H](CCC(=O)O)NC(=O)[C@@H]1CCCN1C(=O)[C@H](CO)NC(=O)[C@H](CCCNC(=N)N)NC(=O)c1ccc2c(c1)C(=O)OC21c2ccc(O)cc2Oc2cc(O)ccc21)C(C)C)C(=O)N[C@@H](Cc1ccccc1)C(=O)N[C@@H](CCC(N)=O)C(=O)N[C@@H](CO)C(=O)N[C@@H](Cc1c[nH]cn1)C(=O)N[C@@H](Cc1c[nH]c2ccccc12)C(=O)N[C@@H](C)C(=O)N[C@@H](CO)C(=O)NCC(N)=O [Peptide Y16A] (5FAM-RSPESVAFPMFQSHWASG-NH2) | complete loss in binding | 6 RU | –
4 | CSCC[C@H](NC(=O)[C@@H]1CCCN1C(=O)[C@H](C)NC(=O)[C@H](C)NC(=O)[C@@H](NC(=O)[C@H](CO)NC(=O)[C@H](CCC(=O)O)NC(=O)[C@@H]1CCCN1C(=O)[C@H](CO)NC(=O)[C@H](CCCNC(=N)N)NC(=O)c1ccc2c(c1)C(=O)OC21c2ccc(O)cc2Oc2cc(O)ccc21)C(C)C)C(=O)N[C@@H](Cc1ccccc1)C(=O)N[C@@H](CCC(N)=O)C(=O)N[C@@H](CO)C(=O)N[C@@H](Cc1c[nH]cn1)C(=O)N[C@@H](Cc1c[nH]c2ccccc12)C(=O)N[C@@H](Cc1ccc(O)cc1)C(=O)N[C@@H](CO)C(=O)NCC(N)=O [Peptide F8A] (5FAM-RSPESVAAPMFQSHWYSG-NH2) | complete loss in binding | -0.0133 RU | –
5 | CC(C)[C@H](NC(=O)[C@H](CO)NC(=O)[C@H](CCC(=O)O)NC(=O)[C@@H]1CCCN1C(=O)[C@H](CO)NC(=O)[C@H](CCCNC(=N)N)NC(=O)c1ccc2c(c1)C(=O)OC21c2ccc(O)cc2Oc2cc(O)ccc21)C(=O)N[C@@H](C)C(=O)N[C@@H](Cc1ccccc1)C(=O)N1CCC[C@H]1C(=O)N[C@@H](C)C(=O)N[C@@H](Cc1ccccc1)C(=O)N[C@@H](CCC(N)=O)C(=O)N[C@@H](CO)C(=O)N[C@@H](Cc1c[nH]cn1)C(=O)N[C@@H](Cc1c[nH]c2ccccc12)C(=O)N[C@@H](Cc1ccc(O)cc1)C(=O)N[C@@H](CO)C(=O)NCC(N)=O [Peptide M10A] (5FAM-RSPESVAFPAFQSHWYSG-NH2) | complete loss in binding | 7 RU | –
6 | CSCC[C@H](NC(=O)[C@@H]1CCCN1C(=O)[C@H](Cc1ccccc1)NC(=O)[C@H](C)NC(=O)[C@@H](NC(=O)[C@H](CO)NC(=O)[C@H](CCC(=O)O)NC(=O)[C@@H]1CCCN1C(=O)[C@H](CO)NC(=O)[C@H](CCCNC(=N)N)NC(=O)c1ccc2c(c1)C(=O)OC21c2ccc(O)cc2Oc2cc(O)ccc21)C(C)C)C(=O)N[C@@H](C)C(=O)N[C@@H](CCC(N)=O)C(=O)N[C@@H](CO)C(=O)N[C@@H](Cc1c[nH]cn1)C(=O)N[C@@H](Cc1c[nH]c2ccccc12)C(=O)N[C@@H](Cc1ccc(O)cc1)C(=O)N[C@@H](CO)C(=O)NCC(N)=O [Peptide F11A] (5FAM-RSPESVAFPMAQSHWYSG-NH2) | complete loss in binding | -1.75 RU | –
7 | CSCC[C@H](NC(=O)[C@@H]1CCCN1C(=O)[C@H](Cc1ccccc1)NC(=O)[C@H](C)NC(=O)[C@@H](NC(=O)[C@H](CO)NC(=O)[C@H](CCC(=O)O)NC(=O)[C@@H]1CCCN1C(=O)[C@H](CO)NC(=O)[C@H](CCCNC(=N)N)NC(=O)c1ccc2c(c1)C(=O)OC21c2ccc(O)cc2Oc2cc(O)ccc21)C(C)C)C(=O)N[C@@H](Cc1ccccc1)C(=O)N[C@@H](CCC(N)=O)C(=O)N[C@@H](CO)C(=O)N[C@@H](Cc1c[nH]cn1)C(=O)N[C@@H](Cc1c[nH]c2ccccc12)C(=O)N[C@@H](Cc1ccc(O)cc1)C(=O)N[C@@H](CO)C(=O)N[C@@H](C)C(N)=O [Peptide G18A] (5FAM-RSPESVAFPMFQSHWYSA-NH2) | – | – | Kd [1, 6]: 31 nM
8 | CSCC[C@H](NC(=O)[C@@H]1CCCN1C(=O)[C@H](Cc1ccccc1)NC(=O)[C@H](C)NC(=O)[C@@H](NC(=O)[C@H](CO)NC(=O)[C@H](CCC(=O)O)NC(=O)[C@@H]1CCCN1C(=O)[C@H](CO)NC(=O)[C@H](CCCNC(=N)N)NC(=O)c1ccc2c(c1)C(=O)OC21c2ccc(O)cc2Oc2cc(O)ccc21)C(C)C)C(=O)N[C@@H](Cc1ccccc1)C(=O)N[C@@H](C)C(=O)N[C@@H](CO)C(=O)N[C@@H](Cc1c[nH]cn1)C(=O)N[C@@H](Cc1c[nH]c2ccccc12)C(=O)N[C@@H](Cc1ccc(O)cc1)C(=O)N[C@@H](CO)C(=O)NCC(N)=O [Peptide Q12A] (5FAM-RSPESVAFPMFASHWYSG-NH2) | – | – | Kd [1, 6]: 27 nM
9 | CSCC[C@H](NC(=O)[C@@H]1CCCN1C(=O)[C@H](Cc1ccccc1)NC(=O)[C@H](C)NC(=O)[C@@H](NC(=O)[C@@H]1CSCC(=O)CSC[C@H](NC(=O)[C@H](CCCNC(=N)N)NC(=O)c2ccc3c(c2)C(=O)OC32c3ccc(O)cc3Oc3cc(O)ccc32)C(=O)N2CCC[C@H]2C(=O)N[C@@H](CCC(=O)O)C(=O)N1)C(C)C)C(=O)N[C@@H](Cc1ccccc1)C(=O)N[C@@H](CCC(N)=O)C(=O)N[C@H]1CSCC(=O)CSC[C@@H](C(=O)NCC(N)=O)NC(=O)[C@H](Cc2ccc(O)cc2)NC(=O)[C@H](Cc2c[nH]c3ccccc23)NC(=O)[C@H](Cc2c[nH]cn2)NC1=O (single isomer, unassigned) [Peptide 3 Isomer 1] | – | – | Kd [1]: 24 ± 10 nM; Kd [4]: 26 ± 2 nM; Kd [5]: 51 nM
